How the values were obtained:
[1] = Blood pressure and heart rate responses to intravenous injection in anesthetized rats; assay type: in vivo, pentobarbital-anesthetized normotensive Wistar rats
Procedure: Measurement of blood pressure and heart rate
The method reported in Gen.
vasomolol (0.5, 1.0, 3.0 mg/kg)

[2] = molecular target: T1, β-adrenoceptor, ventricular membranes (Sus scrofa, UniProt Q28998); assay: Competition for [3H]-DHA binding to ventricular membranes; parameters: species or system pig
T1 construct: tissue local slaughterhouse; host or cells: pig heart ventricular membranes
T1 sequence (Q28998 whole entry): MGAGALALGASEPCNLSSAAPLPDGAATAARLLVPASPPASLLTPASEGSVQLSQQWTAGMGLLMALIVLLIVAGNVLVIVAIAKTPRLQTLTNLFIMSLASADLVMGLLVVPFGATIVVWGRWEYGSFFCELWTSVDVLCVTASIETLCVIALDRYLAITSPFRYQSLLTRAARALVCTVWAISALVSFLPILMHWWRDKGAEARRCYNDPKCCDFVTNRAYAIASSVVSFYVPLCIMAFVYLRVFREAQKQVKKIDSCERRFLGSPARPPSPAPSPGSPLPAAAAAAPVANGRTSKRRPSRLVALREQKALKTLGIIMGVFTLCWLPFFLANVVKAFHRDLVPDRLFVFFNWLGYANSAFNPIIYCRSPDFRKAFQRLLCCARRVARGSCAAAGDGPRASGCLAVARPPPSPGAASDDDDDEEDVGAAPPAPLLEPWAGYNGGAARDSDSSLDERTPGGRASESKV
Procedure: Pig's heart were obtained from a local slaughterhouse immediately after the animals had been killed and transported to our laboratory in ice-cold buffer (250 mM sucrose/50 mM Tris [hydroxymethyl] aminomethane HCl/1 mM magnesium chloride, pH 7.4). Various heart tissues were removed and prepared as detailed as described in Cardiovasc. […] In the test for receptor binding, the ventricles were placed in ice-cold buffer and all subsequent procedures were carried out at 4° C. The tissue was homogenised in 20 volumes of TE buffer (10 mmole.litre^-1 Tris-HCl, 1 mmole.litre^-1 EDTA, 0.1 mmole.litre^-1 ascorbic acid, pH 7.4) with three 12-s pulses using a Polytron homogenizer (Kinematica, Model PT 3000, Switzerland). The homogenate was filtered with pressure through muslin and the filtrate centrifuged for 10 min at 1000 g to remove connective tissue, unbroken cells and cell debris.
This membrane preparation has been described in Biochem. Biophys. Acta. […] The binding assay of [^3 H]-DHA was carried out as described in Biochem. Biophys. Res. Commun. […] [^3 ]-DHA and ventricular membranes (200-300 μg) were incubated for 60 min at 25° C. with and without the addition of 1 μM alprenolol, in 75 mM Tris-HCI buffer comprising MgCl2 25 mM, to make a final volume of 250 μl. In competitive binding experiments, the competing agent was added directly to the incubation mixture. The incubation was terminated by addition of 1 ml of ice-cold assay buffer followed by immediate filtration through Whatman GF/C glass fiber filters supported on a 12-port filter manifold (Millipore). The filters were immediately washed three times with 5 ml of ice-cold assay buffer and dried in an oven at 60° C. for 2 hr prior to adding 5 ml of Triton-toluene based scintillation fluid.
In each experiment, non-specifically bound [^3 H]-DHA was determined by incubating membrane protein and [^3 H]-DHA with 1 μM alprenolol. Specific binding was thus obtained by deducing this value from the total binding of [^3 H]-DHA for each sample.
All incubations were performed as described in the method section. Data shown are the means of three independent duplicate determinations.

[3] = 0.5 mg/kg i.v., mean ± SEM (n = 8)
[4] = 1.0 mg/kg i.v., mean ± SEM (n = 8)
[5] = 3.0 mg/kg i.v., mean ± SEM (n = 8)

SMILES: CCOC(=O)c1ccc(OCC(O)CNC(C)(C)C)c(OC)c1 (stereo not shown) [Vasomolol]
- BP change [1, 3]: -4.5 ± 1.4 mm Hg
- HR change [1, 3]: -20.0 ± 2.3 bpm
- bradycardia duration [1, 3]: 3.5 ± 0.7 min
- BP change [1, 4]: -6.5 ± 1.9 mm Hg
- HR change [1, 4]: -34.5 ± 2.8 bpm
- bradycardia duration [1, 4]: 7.2 ± 0.8 min
- BP change [1, 5]: -10.8 ± 1.2 mm Hg
- HR change [1, 5]: -50.0 ± 3.4 bpm
- bradycardia duration [1, 5]: 8.0 ± 1.2 min
- bradycardia duration ([1]; i.v. injection): less than 10 min
- blood pressure and heart rate effect ([1]; i.v. injection 0.5, 1.0, 3.0 mg/kg, in words): produced a hypotensive action and a decrease in heart rate
- order of potency inhibiting [3H]-DHA binding ([2]; in words): (-) propranolol>>vasomolol=esmolol
- IC50 ([2]; mean±S.E.M.): 4.7 ± 1.5 µM

Reference: patent publication US5939578A, “Vasomolol: an ultra short-acting and vasodilatory vanilloid type β - adrenoceptor antagonist” (Lin; Tong-Ho, priority 1996, dated 1999)
